# Source: patent publication US20260256786A1 (United Therapeutics Corporation, priority 2020, published 2026)
# Like-named read-outs stand apart in the source and are kept apart here.
# Columns and labels:
# [1] = Pharmacokinetics of insufflated ImaT powder in rat: lung sections; assay type: in vivo, Sprague Dawley rats; settings: for concentration at 0.08 h / concentration at 1 h / concentration at 4 h / concentration at 8 h: male, Sprague Dawley, rat, lung, inhaled, 4 mg/kg
# Protocol: Lungs were also harvested at specified time points (see Table 4). […] Lungs werethen harvested. The left lobe was sectioned into three parts; upper, middle and bottom. Each section was separated into two equal pieces. Each piece was weighed and individually placed in a properly labeled tube. Lungs samples were snap-frozen and stored at −80° C. Lung samples were then homogenized in PBS, 0.1% Triton X-100 (200 mg of tissue/mL). The homogenate samples were stored at −80° C.
# [2] = ImaT 4 mg/kg insufflation, 24 h time point
# Protocol: After dosing, blood samples and lungs were collected at specific time points over a period of 24 hours.
# The rats were anesthetized with a mixture of 1.5 to 3% isoflurane USP (Abbott Laboratories, Montreal Canada) in 100% oxygen, and placed on a homoeothermic heating pad to maintain body temperature at 37±1° C.
# For all groups, the test article was insufflated using an automated insufflation device. The insufflator tip was inserted just above the bifurcation of the trachea and the discharge of powder was timed to the inhalation cycle of the animal. After dosing, the animals were allowed to recover from anesthesia under surveillance before being returned to their respective cages.
# Blood samples of 0.5 mL were collected from the jugular vein at specified time points (see Table 4).
# Blood samples were centrifuged (3000 r.p.m. for 10 min., 2-8° C.) and plasma was transferred into an Eppendorf tube labeled with the Study Number, animal I.D., dose group and time point.
# For each group, data in this report is expressed as mean±S.E.M.
# [3] = section 1 (homogenate), read-out: Lung conc, Section 1
# [4] = section 2 (homogenate), read-out: Lung conc, Section 2
# [5] = section 3 (homogenate), read-out: Lung conc, Section 3
# [6] = section 4 (homogenate), read-out: Lung conc, Section 4
# [7] = section 5 (homogenate), read-out: Lung conc, Section 5
# [8] = section 6 (homogenate), read-out: Lung conc, Section 6
smiles,measurement,setting,value
"Cc1ccc(NC(=O)c2ccc(CN3CCN(C)CC3)cc2)cc1Nc1nccc(-c2cccnc2)n1 [Imatinib, 4-[(4-methylpiperazin-1-yl)methyl]-N-[4-methyl-3-[(4-pyridin-3-ylpyrimidin-2-yl)amino]phenyl]benzamide]",Imatinib concentrations in the lung,"[1]; ImaT 4 mg/kg insufflation, 24 hour time point",below the limit of detection
same,concentration at 0.08 h,[1]; [3],201 ng/mL
same,concentration at 1 h,[1]; [3],260 ng/mL
same,concentration at 4 h,[1]; [3],62 ng/mL
same,concentration at 8 h,[1]; [3],27.2 ng/mL
same,concentration at 0.08 h,[1]; [4],1530 ng/mL
same,concentration at 1 h,[1]; [4],638 ng/mL
same,concentration at 4 h,[1]; [4],51 ng/mL
same,concentration at 8 h,[1]; [4],24.4 ng/mL
same,concentration at 0.08 h,[1]; [5],888 ng/mL
same,concentration at 1 h,[1]; [5],307 ng/mL
same,concentration at 4 h,[1]; [5],55.9 ng/mL
same,concentration at 8 h,[1]; [5],21.1 ng/mL
same,concentration at 0.08 h,[1]; [6],3000 ng/mL
same,concentration at 1 h,[1]; [6],510 ng/mL
same,concentration at 4 h,[1]; [6],68.4 ng/mL
same,concentration at 8 h,[1]; [6],24.6 ng/mL
same,concentration at 0.08 h,[1]; [7],2580 ng/mL
same,concentration at 1 h,[1]; [7],196 ng/mL
same,concentration at 4 h,[1]; [7],69.5 ng/mL
same,concentration at 8 h,[1]; [7],22.1 ng/mL
same,concentration at 0.08 h,[1]; [8],4740 ng/mL
same,concentration at 1 h,[1]; [8],314 ng/mL
same,concentration at 4 h,[1]; [8],66.3 ng/mL
same,concentration at 8 h,[1]; [8],24.6 ng/mL
same,Time of maximal lung concentration of Imatinib,[1]; post-inhalation of ImaT,5 min
same,Plasma concentration of Imatinib,[2],below the limit of detection
